Source: patent US20150152083A1, “Compounds and Compositions for Modulating EGFR Activity” (IRM LLC, A Delaware Limited Liability Company, priority 2012, published 2015)

What was measured:
[1] = molecular target: T1, EGFR(L858R/T790M) (Homo sapiens, UniProt P00533, L858R/T790M); assay: EGFR biochemical assay (HTRF), IC50 determination; parameters: purchased from Carna (GST-a.a. 669-1210); purchased Carna; conditions: 10 μM ATP
Description: All EGFR biochemical assays were carried out by HTRF method. The EGFR(L858RT790M) enzyme were purchased from Carna (GST-a.a. 669-1210). The substrate peptide Biotin-TK-peptide was purchased from Cis-Bio. The reaction mixtures contained 1 μM peptide substrate, 10 μM ATP, and 0.036 nM EGFR(L858RT790M) in the reaction buffer (50 mM HEPES pH 7.1, 10 mM MgCl2, 0.01% BSA, 1 mM TCEP and 0.1 mM Na3VO4) at a final volume of 10 μL. All reactions were carried out at room temperature in white ProxiPlate™ 384-well Plus plates (PerkinElmer) and were quenched with 5 μL of 0.2 M EDTA at 60 min Five μL of the detection reagents (2.5 ng PT66K and 0.05 μg SAXL per well) were added, the plates were incubated at room temperature for 1 h and then read in EnVision reader. […] For no-preincubation condition, the compounds were added to the assay solution containing ATP and peptide, and the reaction was initiated by addition of enzyme. For pre-incubation conditions, the compounds were added to the assay solution containing enzyme and peptide, and pre-incubated at room temperature for desired period of time, then the reaction was initiated by addition of ATP.
Target sequence in this assay (P00533 669-1210 T790M/L858R): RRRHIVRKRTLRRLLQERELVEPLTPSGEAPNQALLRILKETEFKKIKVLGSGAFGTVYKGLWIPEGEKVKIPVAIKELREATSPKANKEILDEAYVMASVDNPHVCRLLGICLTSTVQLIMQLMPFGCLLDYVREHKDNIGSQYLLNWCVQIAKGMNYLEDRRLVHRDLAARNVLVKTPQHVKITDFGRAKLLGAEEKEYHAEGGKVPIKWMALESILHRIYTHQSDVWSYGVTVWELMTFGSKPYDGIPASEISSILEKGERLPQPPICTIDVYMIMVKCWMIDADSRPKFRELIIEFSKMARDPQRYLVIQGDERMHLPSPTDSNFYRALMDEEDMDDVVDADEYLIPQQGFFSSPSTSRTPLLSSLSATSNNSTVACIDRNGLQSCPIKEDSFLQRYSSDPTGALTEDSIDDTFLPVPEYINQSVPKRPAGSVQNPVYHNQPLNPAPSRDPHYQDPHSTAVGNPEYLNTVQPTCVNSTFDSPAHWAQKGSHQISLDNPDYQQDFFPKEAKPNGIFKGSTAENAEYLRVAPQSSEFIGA

[2] = molecular target: T2, EGFR (L858R) (Homo sapiens, UniProt P00533, L858R); assay: EGFR target modulation in engineered NIH3T3 cell lines (phospho-EGFR AlphaLISA); format: cell-based; conditions: NIH3T3 cells expressing human EGFR L858R; 3 hours compound
T2 construct: host or cells: NIH3T3
Description: (§1) EGFR Target Modulation in Engineered NIH3T3 Cell Lines
(§2) NIH3T3 cell lines expressing human EGFR (WT, L858R, and L858RT790M) (obtained from Matthew Meyerson's Lab at DFCI) were maintained in 10% FBS/DMEM supplemented with 100 μg/ml Penicillin/Streptomycin (Hyclone #SV30010) and 2 μg/ml Puromycin. The cells were harvested with 0.05% Trypsin/EDTA (Hyclone #SH30236.01), re-suspended in 5% FBS/DMEM Pen/Strep without Puromycin and plated at 9,000 cells per well in 50 μl of media in a 384-well black plate with clear bottoms (Greiner #789068G). The cells were allowed to incubate overnight in a 37° C., 5% CO2 humidified tissue culture incubator. A 12-point test compound curve was prepared by serial diluting a 10 μM stock 1:3 in DMSO in a 384-well compound plate (Greiner #789201L). The serial diluted compounds were transferred to the plate containing cells by using a 50 nl Pin Head device (Perkin Elmer) and the cells were placed back in the incubator for 3 hours. Only the EGFR WT-expressing cells were induced with 50 ng/ml EGF (Preprotech #AF-100-15) for 5 minutes before lysis. The media was removed and cells were lysed in 25 μl of Lysis buffer containing protease and phosphatase inhibitors (1% Triton X-100, 20 mM Tris, pH 7.5, 1 mM EDTA, 1 mM EGTA, 150 mM NaCl, 1× complete cocktail inhibitor (Roche #11 697 498 001), 1× Phosphatase Inhibitor Cocktail Set II and Set III (Sigma #P5726 and #P0044)). The plates were shaken at 4° C. for 5 minutes with foil top at maximum speed. An aliquot of 5 μl from each well was transferred to ProxiPlate™ 384-well Plus plates (PE #6008289). The plates were sealed with a foil top and frozen at −80° C. and thawed when needed.
(§3) The frozen aliquots were thawed and briefly centrifuged. All antibodies and beads were diluted in 1× AlphaLISA HiBlock Buffer (PE #AL004C). Biotinylated anti-phospho-EGFR (Y1068) (Cell Signaling #4031) was incubated with the lysate for 1 hour at room temperature at 1 nM final concentration. Goat anti-total EGFR (R&D Systems #AF231) was added and allowed to equilibrate for 1 hour at room temperature at 1 nM final concentration. Then, 10 μl of mixed beads (AlphaScreen Streptavidin Donor Beads (PE #6760002S) and AlphaLISA anti-goat IgG Acceptor Beads (PE #AL107C)) was equilibrated for 1.5 hours before reading on EnVision plate reader using the built-in settings for AlphaScreen.
(§4) Cells untreated (L858R and L858RT790M) or EGF-induced (WT) were set to 100% maximum response. For a negative control, 10 μM HKI-272 was used to normalize data to 0% of maximum response. With these parameters, the IC50's for each compound in each cell line was calculated using non-linear curve fitting analysis.

[3] = molecular target: T3, EGFR (WT) (Homo sapiens, UniProt P00533); assay: as above; format: cell-based; conditions: NIH3T3 cells expressing human EGFR WT; 3 hours compound; induced with 50 ng/ml EGF
T3 construct: host or cells: NIH3T3
Description: as §1, §2, §3, §4

[4] = molecular target: T1, EGFR(L858R/T790M); assay: as above; format: cell-based; parameters: host or cells: NIH3T3; conditions: NIH3T3 cells expressing human EGFR L858R/T790M; 3 hours compound
Description: as §1, §2, §3, §4
Target sequence in this assay (P00533 25-1210 T790M/L858R): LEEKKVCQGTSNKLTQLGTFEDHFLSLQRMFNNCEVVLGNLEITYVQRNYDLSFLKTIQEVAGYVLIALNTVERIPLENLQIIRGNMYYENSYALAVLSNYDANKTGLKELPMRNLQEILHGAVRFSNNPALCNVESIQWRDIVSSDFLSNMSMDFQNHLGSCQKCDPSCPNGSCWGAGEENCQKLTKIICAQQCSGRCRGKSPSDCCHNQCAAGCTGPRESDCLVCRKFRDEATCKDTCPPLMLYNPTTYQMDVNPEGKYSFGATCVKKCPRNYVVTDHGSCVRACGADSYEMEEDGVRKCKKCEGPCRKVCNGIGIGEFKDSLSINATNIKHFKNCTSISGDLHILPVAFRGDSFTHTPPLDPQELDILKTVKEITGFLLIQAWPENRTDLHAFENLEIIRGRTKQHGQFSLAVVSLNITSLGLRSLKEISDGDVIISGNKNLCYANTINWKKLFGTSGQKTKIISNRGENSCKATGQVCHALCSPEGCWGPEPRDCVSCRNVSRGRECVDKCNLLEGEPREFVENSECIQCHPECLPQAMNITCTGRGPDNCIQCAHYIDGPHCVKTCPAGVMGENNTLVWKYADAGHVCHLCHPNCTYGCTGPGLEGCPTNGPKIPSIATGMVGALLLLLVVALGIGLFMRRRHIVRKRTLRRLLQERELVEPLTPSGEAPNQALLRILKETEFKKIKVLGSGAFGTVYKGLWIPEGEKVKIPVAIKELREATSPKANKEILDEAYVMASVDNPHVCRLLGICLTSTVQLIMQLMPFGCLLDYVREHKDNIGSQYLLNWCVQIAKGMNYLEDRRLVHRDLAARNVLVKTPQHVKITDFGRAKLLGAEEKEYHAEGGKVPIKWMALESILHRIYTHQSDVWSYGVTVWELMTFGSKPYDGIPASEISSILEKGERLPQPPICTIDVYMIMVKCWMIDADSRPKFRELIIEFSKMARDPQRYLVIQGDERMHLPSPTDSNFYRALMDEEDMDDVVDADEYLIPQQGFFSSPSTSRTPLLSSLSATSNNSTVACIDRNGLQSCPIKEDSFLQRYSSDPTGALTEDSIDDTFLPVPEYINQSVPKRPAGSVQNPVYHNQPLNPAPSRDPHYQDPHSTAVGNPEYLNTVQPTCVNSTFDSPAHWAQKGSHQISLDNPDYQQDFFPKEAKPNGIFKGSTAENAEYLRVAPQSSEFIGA

[5] = EGFR (L858R/T790M) IC50 (μM) 90 min pre-incubation, 90 min pre-incubation
[6] = no pre-incubation, read-out: EGFR (L858R/T790M) IC50 (μM) No pre-incubation

T2 sequence (P00533 25-1210 L858R): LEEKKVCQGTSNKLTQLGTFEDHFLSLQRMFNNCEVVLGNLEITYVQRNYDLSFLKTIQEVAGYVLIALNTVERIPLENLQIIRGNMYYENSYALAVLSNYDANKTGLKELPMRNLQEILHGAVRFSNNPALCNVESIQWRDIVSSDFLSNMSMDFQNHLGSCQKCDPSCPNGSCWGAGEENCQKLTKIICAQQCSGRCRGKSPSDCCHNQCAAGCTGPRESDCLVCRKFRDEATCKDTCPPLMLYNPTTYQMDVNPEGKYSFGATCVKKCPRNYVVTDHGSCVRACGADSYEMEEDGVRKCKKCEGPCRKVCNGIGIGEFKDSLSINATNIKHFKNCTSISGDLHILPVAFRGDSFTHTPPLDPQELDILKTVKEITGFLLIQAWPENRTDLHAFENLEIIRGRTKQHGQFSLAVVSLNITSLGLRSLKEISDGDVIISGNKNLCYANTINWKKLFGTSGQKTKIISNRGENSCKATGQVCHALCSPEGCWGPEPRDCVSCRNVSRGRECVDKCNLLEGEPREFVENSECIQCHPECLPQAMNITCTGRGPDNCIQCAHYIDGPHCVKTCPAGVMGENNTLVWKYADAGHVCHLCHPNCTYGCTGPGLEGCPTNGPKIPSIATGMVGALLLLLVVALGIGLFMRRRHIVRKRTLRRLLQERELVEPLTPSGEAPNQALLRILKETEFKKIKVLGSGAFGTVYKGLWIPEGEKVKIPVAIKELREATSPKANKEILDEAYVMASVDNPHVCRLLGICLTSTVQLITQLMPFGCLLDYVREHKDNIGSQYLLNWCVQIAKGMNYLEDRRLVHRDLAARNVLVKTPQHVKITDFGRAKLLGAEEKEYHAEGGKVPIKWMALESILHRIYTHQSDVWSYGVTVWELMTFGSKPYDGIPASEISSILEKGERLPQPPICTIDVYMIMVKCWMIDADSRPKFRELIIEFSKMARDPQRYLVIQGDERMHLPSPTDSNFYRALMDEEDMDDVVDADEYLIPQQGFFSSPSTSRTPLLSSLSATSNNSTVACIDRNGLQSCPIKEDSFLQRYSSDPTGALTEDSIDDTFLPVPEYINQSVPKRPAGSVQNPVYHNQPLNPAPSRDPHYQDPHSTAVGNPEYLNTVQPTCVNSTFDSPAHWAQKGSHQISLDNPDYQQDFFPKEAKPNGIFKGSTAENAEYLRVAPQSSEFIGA
T3 sequence (P00533 25-1210): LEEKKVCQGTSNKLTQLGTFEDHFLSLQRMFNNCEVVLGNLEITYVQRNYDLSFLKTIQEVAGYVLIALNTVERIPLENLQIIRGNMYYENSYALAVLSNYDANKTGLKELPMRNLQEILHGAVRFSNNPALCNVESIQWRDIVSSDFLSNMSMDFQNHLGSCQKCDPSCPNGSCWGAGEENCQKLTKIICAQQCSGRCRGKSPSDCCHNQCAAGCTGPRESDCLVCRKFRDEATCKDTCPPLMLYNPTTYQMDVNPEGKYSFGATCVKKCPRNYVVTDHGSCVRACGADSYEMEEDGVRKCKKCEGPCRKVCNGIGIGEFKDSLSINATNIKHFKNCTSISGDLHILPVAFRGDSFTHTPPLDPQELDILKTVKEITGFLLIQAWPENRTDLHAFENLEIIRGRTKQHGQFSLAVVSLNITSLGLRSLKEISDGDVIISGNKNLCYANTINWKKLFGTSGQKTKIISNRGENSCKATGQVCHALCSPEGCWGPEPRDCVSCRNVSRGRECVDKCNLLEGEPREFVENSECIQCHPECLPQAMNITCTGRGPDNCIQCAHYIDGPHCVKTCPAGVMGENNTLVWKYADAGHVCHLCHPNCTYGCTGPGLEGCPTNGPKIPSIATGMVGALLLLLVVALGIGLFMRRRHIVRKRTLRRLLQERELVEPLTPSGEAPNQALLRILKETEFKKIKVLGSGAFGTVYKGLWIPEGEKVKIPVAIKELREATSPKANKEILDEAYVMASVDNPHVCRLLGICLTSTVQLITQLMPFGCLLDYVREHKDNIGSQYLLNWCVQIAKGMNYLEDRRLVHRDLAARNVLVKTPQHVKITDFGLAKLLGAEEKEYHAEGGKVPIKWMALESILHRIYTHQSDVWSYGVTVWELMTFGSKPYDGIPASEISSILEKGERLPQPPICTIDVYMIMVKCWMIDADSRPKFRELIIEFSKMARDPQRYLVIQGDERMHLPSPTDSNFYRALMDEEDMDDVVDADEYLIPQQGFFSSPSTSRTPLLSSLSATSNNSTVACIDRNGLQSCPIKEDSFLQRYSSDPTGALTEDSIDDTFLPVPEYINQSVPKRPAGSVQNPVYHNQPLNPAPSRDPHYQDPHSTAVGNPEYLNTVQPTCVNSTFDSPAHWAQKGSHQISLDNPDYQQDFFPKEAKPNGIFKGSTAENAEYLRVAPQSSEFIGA

Row | Structure (SMILES) | IC50 [1, 5] [µM] | IC50 [1, 6] [µM] | IC50 [2] [µM] | IC50 [3] [µM] | IC50 [4] [µM]
1 | C=CC(=O)Nc1cccc(-n2c(NC(=O)c3cccc(C(F)(F)F)c3)nc3cc(CN4CCOCC4)ccc32)c1 [Example 5-3, N-[5-(morpholin-4-ylmethyl)-1-[3-(prop-2-enamido)phenyl]-1H-1,3-benzodiazol-2-yl]-3-(trifluoromethyl)benzamide] | 0.003 | 0.072 | 0.25 | > 10 | 0.026
2 | C=CC(=O)NCCCn1c(NC(=O)c2cccc(C(F)(F)F)c2)nc2cc(C)ccc21 [Example 8-4, N-{5-methyl-1-[3-(prop-2-enamido)propyl]-1H-1,3-benzodiazol-2-yl}-3-(trifluoromethyl)benzamide] | 0.046 | 0.62 | > 10 | > 10 | 0.83
